Experimental findings from patent US10266489B2, “Pyrrolic amide compound and preparation method and application thereof” (HitGen LTD, priority 2014, dated 2019) are described below.

One may read the IC50 as the concentration needed to halve the response being measured. Low readings indicate greater potency in that assay, high ones weaker potency in that assay.

The subject of one assay is HepG2 cells. Nature of the assay: Determination of cell growth inhibition, CCK-8, HepG2. It counts as cell-based. To be noted: Homo sapiens, HepG2 hepatoma cells, 72 hours, highest measured IC50 of single or multiple operations. The text has this: (§1) Test example 2 Cell determination-determination of cell growth inhibition Materials and reagents HepG2 cell strains, Hep3B cell strains, Huh7 cell strains and Li7 cell strains are purchased from Shanghai Institutes for Biological Sciences of Chinese Academy of Sciences; DMEM high glucose media and MEM media are purchased from Hyclone; fetal calf serum is purchased from Gibco Company; trypsin is purchased from Invitrogen Shanghai; CCK-8 kits are purchased from Beyotime Institute of Biotechnology; and other consumables such as cell-culture dishes and the like are purchased from Corning China. […]
(§2) comprising the steps: digesting HepG2 cells, Hep3B Huh7 cells and Li7 cells in logarithmic phases by using the trypsin; after counting the cells by taking uniform cell suspension, adjusting cell density to 1500 cells/pore by using a culture medium containing 10% of serum, and re-inoculating into a 96-pore cell culture plate, wherein the culture volume is 200 μL; incubating in a 5% CO2 incubator at a temperature of 37° C.; and culturing for 24 hours for experiments. […]
(§3) comprising the steps: taking the cells cultured for 24 hours from the incubator, sucking culture solution in the pore plate, adding 200 μL of compound solution prepared by using a culture medium containing 10% of the fetal calf serum into each pore, enabling five pores of each concentration to be parallel, setting DMSO at negative control, and incubating in the 5% CO2 incubator at a temperature of 37° C. for 72 hours for performing CCK-8 detection. […]
(§4) comprising the steps: taking a serum-free medium and a CCK-8 solution, and preparing a CCK-8 working solution according to a ratio of 10:1 (the process needs to be protected from light); taking the cells cultured for 72 hours from the incubator, sucking culture solution in the pore plate, adding 120 μL of the CCK-8 working solution into each pore, adding 120 μL of the CCK-8 working solution into a cell-free pore plate to serve as blank control, and incubating in the 5% CO2 incubator at a temperature of 37° C. for one hour (the process needs to be protected from light ); and […]
(§5) taking the pore plate from the incubator, sucking 100 μL of solution from each pore into a new 96-pore plate, and reading absorbancy at 450 nm (the process needs to he protected from light).
(§6) Tx: absorbancy measured in CCK-8 within 72 hours after compound effect
(§7) C: absorbancy measured m CCK-8 within 72 hours after culturing in negative control pores B: absorbancy measured CCK-8 in blank control pores
(§8) The compounds 1-19 prepared in the embodiments are operated in the above determination, and test results are shown in Table 3, wherein the highest measured IC50 values of the various compounds during single or multiple operations are classified as specified, as shown in Table 3: […]

The next assay concerns Li7 cells. Nature of the assay: Determination of cell growth inhibition, CCK-8, Li-7. It counts as cell-based. To be noted: Li-7 hepatoma cells, 72 hours, highest measured IC50 of single or multiple operations.
Description: as §1, §2, §3, §4, §5, §6, §7, §8

In assay [1] the target is T1, histone deacetylase 6 (HDAC6) (Homo sapiens, UniProt Q9UBN7).
T1 construct: purchased BPS Bioscience 50076
T1 sequence (Q9UBN7 1-1215): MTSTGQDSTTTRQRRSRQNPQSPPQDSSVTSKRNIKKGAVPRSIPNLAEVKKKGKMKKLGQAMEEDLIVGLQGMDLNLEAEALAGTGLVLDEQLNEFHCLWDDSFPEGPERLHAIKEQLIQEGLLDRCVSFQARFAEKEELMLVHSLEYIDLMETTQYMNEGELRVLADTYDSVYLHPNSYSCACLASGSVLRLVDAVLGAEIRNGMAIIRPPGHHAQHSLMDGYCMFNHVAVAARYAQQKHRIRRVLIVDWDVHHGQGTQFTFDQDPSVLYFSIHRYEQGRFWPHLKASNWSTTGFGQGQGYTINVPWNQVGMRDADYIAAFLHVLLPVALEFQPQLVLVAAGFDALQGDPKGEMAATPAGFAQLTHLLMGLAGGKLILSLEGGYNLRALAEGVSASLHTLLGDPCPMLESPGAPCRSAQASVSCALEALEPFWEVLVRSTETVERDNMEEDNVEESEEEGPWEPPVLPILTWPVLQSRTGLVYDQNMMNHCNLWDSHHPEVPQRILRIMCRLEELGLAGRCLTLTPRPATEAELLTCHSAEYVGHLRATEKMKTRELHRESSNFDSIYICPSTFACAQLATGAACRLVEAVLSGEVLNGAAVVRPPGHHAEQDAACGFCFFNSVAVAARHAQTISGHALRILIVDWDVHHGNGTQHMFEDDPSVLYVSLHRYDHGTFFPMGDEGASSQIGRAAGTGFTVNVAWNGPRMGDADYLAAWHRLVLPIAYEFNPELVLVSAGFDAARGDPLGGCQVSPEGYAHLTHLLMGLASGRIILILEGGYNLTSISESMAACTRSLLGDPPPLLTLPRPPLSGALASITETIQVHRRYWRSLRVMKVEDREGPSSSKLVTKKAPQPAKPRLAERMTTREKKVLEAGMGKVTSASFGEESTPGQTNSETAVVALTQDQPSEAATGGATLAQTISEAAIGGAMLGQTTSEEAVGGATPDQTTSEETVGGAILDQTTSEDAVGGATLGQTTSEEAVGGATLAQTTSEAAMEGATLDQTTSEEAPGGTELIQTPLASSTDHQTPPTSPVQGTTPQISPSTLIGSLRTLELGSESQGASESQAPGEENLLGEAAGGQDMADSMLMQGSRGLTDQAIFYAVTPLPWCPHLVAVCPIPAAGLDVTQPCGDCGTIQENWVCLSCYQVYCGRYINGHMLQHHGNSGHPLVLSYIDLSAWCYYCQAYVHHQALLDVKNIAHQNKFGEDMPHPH
Nature of the assay: Detection of enzyme viability of histone deacetylase 6 (fluorogenic substrate deacetylation). It counts as biochemical. To be noted: 0.35 ng/μL HDAC 6, 20 μM substrate, 37° C. The text has this:
(§9) HDAC inhibitory viabilities of the compounds in the present invention are detected in detection of substrate deacetylation.
A: Detection of enzyme viability of histone deacetylase 6 (#50076, BPS Bioscience):
Acetyl of HDAC 6 on a substrate is removed, so that the substrate is activated and can be affected by a subsequently added developing solution, and fluorophore is released. The size of a fluorescence signal reflects the viability of the HDAC 6. An IC50 detection method of the enzyme is disclosed in Chuping Xu, Elisabetta Soragni improved Histone Deacetylase Inhibitors as Therapeutics for the Neurdegenerative DiseaseEriedreich's Ataxia: A New Synthetic Route. A total reaction system (100 μL/well) contains 0.35 ng/μL of HDAC 6, 20 μM of substrate and compounds of different concentrations. The fluorescence signal is measured within 30 minutes after incubation at a temperature of 37° C., inhibitory effects of the compounds are determined from the obtained data and mapped with the compound concentrations to obtain a concentration response curve, and the IC50 value is fitted according to a four-parameter model.
The compounds 1-19 prepared in the embodiments are subjected to detection of enzyme viability of histone deacetylase 6 (i.e., HDAC6) according to the method above. Test results are shown in Table 2, wherein the measured IC50 values of the compounds are classified as specified, as shown in Table 2: […]

A further assay relates to Huh7 cells. Nature of the assay: Determination of cell growth inhibition, CCK-8, Huh-7. It counts as cell-based. To be noted: Homo sapiens, Huh-7 hepatoma cells, 72 hours, highest measured IC50 of single or multiple operations.
Description: as §1, §2, §3, §4, §5, §6, §7, §8

The next assay has as its system Hep3B cells. Nature of the assay: Determination of cell growth inhibition, CCK-8, Hep3B. It counts as cell-based. To be noted: Homo sapiens, Hep3B hepatoma cells, 72 hours, highest measured IC50 of single or multiple operations.
Description: as §1, §2, §3, §4, §5, §6, §7, §8

Assay [2] concerns the target T2, histone deacetylase 3 (HDAC3) (Homo sapiens, UniProt O15379).
T2 construct: purchased BPS Bioscience 50003
The assay is described as follows: Detection of enzyme viability of histone deacetylase 3 (fluorogenic substrate deacetylation). To be noted: 0.16 ng/μL HDAC 3, 10 μM substrate. It counts as biochemical.
Description: as §9
B: Detection of enzyme viability of histone deacetylase 3 (#50003, BPS Bioscience):
Acetyl of HDAC 3 on a substrate is removed, so that the substrate is activated and can be affected by the developing solution, and fluorophore is released. The size of a fluorescence signal reflects the viability of the HDAC 3. An IC50 detection method of the enzyme is disclosed in Chuping Xu, Elisabetta Soraeni Improved Histone Deacetylase Inhibitors as Therapeutics for the Neurdegenerative DiseaseFriedreich's Ataxia: A New Synthetic Route. A total reaction system (100 μL/well) contains 0.16 ng/μL of HDAC 3, 10 μM of substrate and compounds of different concentrations. The fluorescence signal is detected at Ex/Em=360/460 on line, inhibitory effects of the compounds are determined from the obtained data and mapped with the compound concentrations to obtain a concentration response curve, and the IC50 value is fitted according to a four-parameter model.
The compounds 1-19 prepared in the embodiments are subjected to detection of enzyme viability of histone deacetylase 3 (i.e., HDAC3) according to the method above. Test results are shown in Table 2, wherein the measured IC50 values of the compounds are classified as specified, as shown in Table 2: […]

T2 sequence (O15379 whole entry): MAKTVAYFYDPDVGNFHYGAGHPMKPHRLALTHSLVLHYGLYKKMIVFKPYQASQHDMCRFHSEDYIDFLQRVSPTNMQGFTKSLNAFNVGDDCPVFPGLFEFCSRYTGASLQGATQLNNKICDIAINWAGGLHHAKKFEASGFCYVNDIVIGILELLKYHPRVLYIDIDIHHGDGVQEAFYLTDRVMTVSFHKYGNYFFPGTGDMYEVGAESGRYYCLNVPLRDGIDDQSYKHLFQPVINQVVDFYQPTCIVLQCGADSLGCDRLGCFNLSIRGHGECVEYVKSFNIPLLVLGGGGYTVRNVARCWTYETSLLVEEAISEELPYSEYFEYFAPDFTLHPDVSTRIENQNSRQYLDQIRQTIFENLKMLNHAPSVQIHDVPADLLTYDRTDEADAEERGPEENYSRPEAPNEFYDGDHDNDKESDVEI
T2 sequence (Q9Y618 395-489 partner limits assumed): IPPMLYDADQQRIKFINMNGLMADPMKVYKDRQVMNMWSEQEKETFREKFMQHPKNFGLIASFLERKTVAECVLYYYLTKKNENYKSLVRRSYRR

As to `O=C(NO)C1=CCN(S(=O)(=O)c2ccccc2)C1` [Compound 2, N-hydroxy-1-(benzene-sulfonyl)-2,5-dihydro-1H-pyrrole-3-formamide], the IC50 in the assay on HepG2 cells is above 10 µM; in the assay on Li7 cells, above 10 µM; in assay [1], below 100 nM; with Huh7 cells it was above 10 µM; in the assay on Hep3B cells, above 10 µM; in assay [2], above 1000 nM.
`O=C(NO)C1=CCN(S(=O)(=O)c2ccc(Oc3ccccc3)cc2)C1` [Compound 3]: the IC50 was above 10 µM in the assay on HepG2 cells; above 10 µM in the assay on Li7 cells; 100 to 300 nM in assay [1]; above 10 µM in the assay with Huh7 cells; above 10 µM in the assay on Hep3B cells; 100 to 1000 nM in assay [2].
`CC(=O)Nc1ccc(S(=O)(=O)N2CC=C(C(=O)NO)C2)cc1Cl` [Compound 4, N-hydroxy-1-((4-acetamido-3-chlorphenyl)sulfonyl)2,5-dihydro-1H-pyrro1e-3-formamide]: the IC50 with HepG2 cells is above 10 µM; in the assay on Li7 cells, above 10 µM; in assay [1], below 100 nM; in the assay on Huh7 cells, above 10 µM; with Hep3B cells, above 10 µM; in assay [2], 100 to 1000 nM.
For `O=C(NO)C1=CCN(S(=O)(=O)c2ccc3c(c2)OCCO3)C1` [Compound 5, N-hydroxy-1-((2,3-dihydro-benzo[b] [1,4]dioxin)-6-sulfonyl)2,5-dihydro-1H-pyrrole-3-formamide], the IC50 was above 10 µM with HepG2 cells; above 10 µM in the assay on Li7 cells; below 100 nM in assay [1]; above 10 µM with Huh7 cells; above 10 µM with Hep3B cells; above 1000 nM in assay [2].
Regarding `O=C(NO)C1=CCN(S(=O)(=O)c2ccc3c(c2)OCC3)C1` [Compound 6, N-hydroxy-1-((2,3-dihydro-benzofuran)-6-sulfonyl)2,5-dihydro-1H-pyrrole-3-formamide], the IC50 in the assay with HepG2 cells is above 10 µM; in the assay with Li7 cells, above 10 µM; in assay [1], below 100 nM; with Huh7 cells, above 10 µM; in the assay with Hep3B cells, above 10 µM; in assay [2], 100 to 1000 nM.
Turning to `CC(C)(C)c1ccc(S(=O)(=O)N2CC=C(C(=O)NO)C2)cc1` [Compound 8], the IC50 is above 10 µM in the assay on HepG2 cells; above 10 µM with Li7 cells; below 100 nM in assay [1]; above 10 µM with Huh7 cells; above 10 µM with Hep3B cells; 100 to 1000 nM in assay [2].
